From patent US9464073B2, “Pyrimidine hydroxy amide compounds as HDAC6 selective inhibitors” (Acetylon Pharmaceuticals, Inc., priority 2014, dated 2016)
Entries after “also recorded” stand apart in the source; their conditions may differ.

What was measured:
[1] = target: HDAC3 (Homo sapiens (Human), UniProt O15379); assay: HDAC enzyme assay (HDAC3); format: biochemical
Protocol: (§1) Compounds for testing were diluted in DMSO to 50 fold the final concentration and a ten point three fold dilution series was made. The compounds were diluted in assay buffer (50 mM HEPES, pH 7.4, 100 mM KCl, 0.001% Tween-20, 0.05% BSA, 20 μM TCEP) to 6 fold their final concentration. The HDAC enzymes (purchased from BPS Biosciences) were diluted to 1.5 fold their final concentration in assay buffer. The tripeptide substrate and trypsin at 0.05 μM final concentration were diluted in assay buffer at 6 fold their final concentration. The final enzyme concentrations used in these assays were 3.3 ng/ml (HDAC1), 0.2 ng/ml (HDAC2), 0.08 ng/ml (HDAC3) and 2 ng/ml (HDAC6). The final substrate concentrations used were 16 μM (HDAC1), 10 μM (HDAC2), 17 μM (HDAC3) and 14 μM (HDAC6).
(§2) Five μl of compounds and 20 μl of enzyme were added to wells of a black, opaque 384 well plate in duplicate. Enzyme and compound were incubated together at room temperature for 10 minutes. Five μl of substrate was added to each well, the plate was shaken for 60 seconds and placed into a Victor 2 microtiter plate reader. The development of fluorescence was monitored for 60 min and the linear rate of the reaction was calculated. The IC50 was determined using Graph Pad Prism by a four parameter curve fit.

[2] = target: HDAC6 (Homo sapiens (Human), UniProt Q9UBN7); assay: HDAC enzyme assay (HDAC6); format: biochemical
HDAC6, sequence (Q9UBN7 whole entry): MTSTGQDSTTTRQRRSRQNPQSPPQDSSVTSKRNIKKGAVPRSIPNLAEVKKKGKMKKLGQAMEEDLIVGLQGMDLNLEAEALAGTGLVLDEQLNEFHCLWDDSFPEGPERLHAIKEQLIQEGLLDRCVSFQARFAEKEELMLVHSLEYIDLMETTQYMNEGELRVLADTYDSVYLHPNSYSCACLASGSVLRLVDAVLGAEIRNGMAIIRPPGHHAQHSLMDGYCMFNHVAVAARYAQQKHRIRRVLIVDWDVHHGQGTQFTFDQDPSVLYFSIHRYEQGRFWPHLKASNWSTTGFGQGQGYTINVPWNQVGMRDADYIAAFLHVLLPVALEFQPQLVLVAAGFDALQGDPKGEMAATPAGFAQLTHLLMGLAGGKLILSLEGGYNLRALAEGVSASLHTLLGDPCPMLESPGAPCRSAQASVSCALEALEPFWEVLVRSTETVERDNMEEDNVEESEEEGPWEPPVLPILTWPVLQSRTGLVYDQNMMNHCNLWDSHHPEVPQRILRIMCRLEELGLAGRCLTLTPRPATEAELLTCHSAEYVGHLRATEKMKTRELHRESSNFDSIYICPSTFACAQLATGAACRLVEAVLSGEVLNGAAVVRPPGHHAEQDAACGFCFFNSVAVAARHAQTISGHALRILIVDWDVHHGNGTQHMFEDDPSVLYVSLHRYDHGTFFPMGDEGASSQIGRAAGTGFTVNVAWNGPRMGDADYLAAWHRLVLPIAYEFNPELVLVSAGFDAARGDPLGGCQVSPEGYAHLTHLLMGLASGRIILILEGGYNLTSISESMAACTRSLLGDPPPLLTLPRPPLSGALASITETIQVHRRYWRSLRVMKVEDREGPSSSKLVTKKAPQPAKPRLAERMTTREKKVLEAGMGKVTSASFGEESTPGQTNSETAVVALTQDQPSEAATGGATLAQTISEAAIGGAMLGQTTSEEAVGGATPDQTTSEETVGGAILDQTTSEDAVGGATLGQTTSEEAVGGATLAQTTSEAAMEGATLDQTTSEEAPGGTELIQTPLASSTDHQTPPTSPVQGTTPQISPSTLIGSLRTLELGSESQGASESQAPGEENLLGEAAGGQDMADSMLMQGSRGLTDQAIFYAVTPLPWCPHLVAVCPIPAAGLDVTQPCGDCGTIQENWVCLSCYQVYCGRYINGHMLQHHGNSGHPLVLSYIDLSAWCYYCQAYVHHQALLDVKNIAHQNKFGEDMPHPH
Protocol: as §1, §2

[3] = Mouse pharmacokinetic studies; format: in vivo; conditions: male C57BL/6 mice, IV 1 mg/kg, from AUC in plasma and brain; for Kp: mouse, read-out: Mouse plasma/brain ratio
Protocol: Male C57BL/6 mice were fasted overnight. Compounds of the invention as well as two previously known HDAC6 inhibitors, Compounds A and B, were dissolved in dimethyl acetamide at 10 times the final concentration, then Solutol HS 15 (BASF) was added to a final concentration of 10%. Finally 80% saline was added and vortexed to achieve a clear solution. Fifteen animals were injected via the tail vein with 1 mg/kg compound. Blood was collected by retro-orbital bleed at 5 minutes, 15 minutes, 30 minutes, 1 hour, 2 hours, 4 hours, 8 hours and 24 hours after dosing. At 5 minutes, 30 minutes, 1 hour and 4 hours after dosing three animals per time point were sacrificed and brains were removed. The blood was centrifuged at 2000 g for 5 minutes at 4° C. to obtain plasma. Brain samples were homogenized in PBS. The plasma and brain homogenate were extracted with acetonitrile and the level of compound was analyzed by LC/MS/MS. The level of compound in plasma was calculated from a standard curve in rat plasma and the level in brain was calculated from a standard curve in brain homogenate. The area under the curve in plasma and brain were calculated using WinNonLin software. The brain to plasma ratio was determined using the area under the curve values for the two compartments.

[4] = Rat pharmacokinetic studies; format: in vivo; conditions: plasma, male SD rats; for clearance: IV 1 mg/kg; for bioavailability: PO 5 mg/kg vs IV 1 mg/kg, dose adjusted AUC
Protocol: Male SD rats were fasted overnight. Compounds of the invention as well as two previously known HDAC6 inhibitors, Compounds A and B were dissolved in dimethyl acetamide at 10 times the final concentration, then Solutol HS 15 (BASF) was added to a final concentration of 10%. Finally 80% saline was added and vortexed to achieve a clear solution. For the IV dosing three animals were injected via the foot dorsal vein with 1 mg/kg compound. For the PO dosing 5 mg/kg of compound was delivered by oral gavage. Blood was collected via the tail vein into K2EDTA tubes at 5 minutes, 15 minutes, 30 minutes, 1 hour, 2 hours, 4 hours, 8 hours and 24 hours after dosing. The blood was centrifuged at 2000 g for 5 minutes at 4° C. to obtain plasma. The plasma was extracted with acetonitrile and the level of compound was analyzed by LC/MS/MS. The level of compound in plasma was calculated from a standard curve in rat plasma. The IV clearance and area under the curve were calculated using WinNonLin software. The dose adjusted area under the curve for the IV and oral dosing were used to calculate the oral bioavailability. Compounds A and B, previously known HDAC6 inhibitors, are shown below (See, e.g., U.S. Pat. No. 8,614,223): […]

[5] = target: HDAC1 (Homo sapiens (Human), UniProt Q13547); assay: HDAC enzyme assay (HDAC1); format: biochemical
HDAC1, sequence (Q13547 whole entry): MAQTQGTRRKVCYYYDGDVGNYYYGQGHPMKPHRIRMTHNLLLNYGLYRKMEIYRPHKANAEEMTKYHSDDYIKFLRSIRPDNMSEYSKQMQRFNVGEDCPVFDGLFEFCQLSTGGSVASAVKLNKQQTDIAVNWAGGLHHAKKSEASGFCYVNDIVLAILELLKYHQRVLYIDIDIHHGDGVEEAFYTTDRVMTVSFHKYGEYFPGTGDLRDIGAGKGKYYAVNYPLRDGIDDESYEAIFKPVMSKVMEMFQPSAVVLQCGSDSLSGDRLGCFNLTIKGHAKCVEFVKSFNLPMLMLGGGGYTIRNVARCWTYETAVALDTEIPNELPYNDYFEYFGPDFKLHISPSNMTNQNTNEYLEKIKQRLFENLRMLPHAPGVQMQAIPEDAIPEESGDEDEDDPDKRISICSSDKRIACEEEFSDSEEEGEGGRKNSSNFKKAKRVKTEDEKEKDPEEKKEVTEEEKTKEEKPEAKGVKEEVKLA
Protocol: as §1, §2

[6] = target: HDAC2 (Homo sapiens (Human), UniProt Q92769); assay: HDAC enzyme assay (HDAC2); format: biochemical
HDAC2, sequence (Q92769 whole entry): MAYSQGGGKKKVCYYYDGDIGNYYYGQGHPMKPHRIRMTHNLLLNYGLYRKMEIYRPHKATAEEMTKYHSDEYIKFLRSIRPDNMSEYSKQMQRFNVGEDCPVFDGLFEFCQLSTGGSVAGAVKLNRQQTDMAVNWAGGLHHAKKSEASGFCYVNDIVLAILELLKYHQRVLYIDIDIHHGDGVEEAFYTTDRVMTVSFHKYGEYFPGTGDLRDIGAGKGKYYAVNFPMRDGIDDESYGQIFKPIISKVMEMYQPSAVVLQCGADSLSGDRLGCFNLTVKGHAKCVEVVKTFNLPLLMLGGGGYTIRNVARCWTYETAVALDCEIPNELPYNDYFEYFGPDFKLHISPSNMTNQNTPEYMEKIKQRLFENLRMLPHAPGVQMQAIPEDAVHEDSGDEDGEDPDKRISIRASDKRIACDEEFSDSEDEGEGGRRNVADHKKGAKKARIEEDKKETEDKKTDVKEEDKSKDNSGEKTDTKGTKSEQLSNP
Protocol: as §1, §2

[7] = test system: taxol treated rats; assay: Taxol induced neuropathic pain study in rats (Von Frey testing); format: in vivo, rat
Protocol: This study included a histology endpoint in addition to the von Frey testing for paw sensitivity.
Neuropathic pain is induced by a 0.5 ml/kg injection of Taxol (2 mg/kg) administered IP on days 0-12. The development of neuropathic pain is confirmed by measuring mechanical allodynia (Von Frey test) on study day 13.
Allodynic response to tactile stimulation is assessed using the Von Frey apparatus (Touch Test®).
The rat will be placed in an enclosure and positioned on a metal mesh surface, but allowed to move freely. The rats' cabins are covered with red cellophane to diminish environmental disturbances. The test begins after a cessation of exploratory behavior. The set of Von Frey monofilaments provide an approximate logarithmic scale of actual force and a linear scale of perceived intensity.
The operating principle: when the tip of a fiber of given length and diameter is pressed against the skin at right angles, the force of application increases as long as the researcher continues to advance the probe until the fiber bends. After the fiber bends, the probe continues to advance, causing the fiber to bend more, but without additional force being applied. […] The Touch Test™ Sensory Evaluator can be used on the plantar surfaces of the rat's foot. The animal indicates sensation by pulling back its paw. The minimal force needed to elevate the withdrawal reflex is considered/designated as the value of reference. In order to achieve paw withdrawal, the pressure applied is sometimes greater than 60 g, often requiring the researcher to apply enough pressure with the Von Frey filament to actually lift the paw of the naive animal. Decreases in force needed to induce withdrawal are indicative of allodynia, as the force applied is a non-painful stimulus under normal conditions.

HDAC3, sequence (O15379 whole entry): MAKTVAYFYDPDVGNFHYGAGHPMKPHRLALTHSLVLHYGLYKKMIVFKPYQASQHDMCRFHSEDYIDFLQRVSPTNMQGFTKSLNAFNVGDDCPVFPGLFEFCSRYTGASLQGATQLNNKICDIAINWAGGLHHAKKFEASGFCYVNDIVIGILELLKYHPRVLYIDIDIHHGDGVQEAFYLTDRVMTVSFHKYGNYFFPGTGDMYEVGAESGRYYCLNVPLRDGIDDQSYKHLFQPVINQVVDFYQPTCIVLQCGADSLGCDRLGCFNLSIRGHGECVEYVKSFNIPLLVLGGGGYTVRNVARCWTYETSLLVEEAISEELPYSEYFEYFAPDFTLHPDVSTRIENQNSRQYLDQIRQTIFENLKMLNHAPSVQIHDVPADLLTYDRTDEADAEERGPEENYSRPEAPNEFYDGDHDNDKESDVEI
HDAC3, sequence (Q9Y618 395-489 partner): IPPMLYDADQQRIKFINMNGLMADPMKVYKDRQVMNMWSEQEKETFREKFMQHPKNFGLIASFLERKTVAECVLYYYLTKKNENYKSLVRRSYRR

SMILES	IC50 [1] [nM]	IC50 [2] [nM]	Kp [3]	clearance [4] [mL/min/kg]	bioavailability [4] [%]	IC50 [5] [nM]	IC50 [6] [nM]	withdrawal force (Von Frey) ([7]; 1 mg/kg PO b.i.d., study day 15) [g]	mean group withdrawal force (Von Frey) ([7]; study day 13 pre-dosing, last dose on day 12 (b.i.d.)) [g]	reversal of nociception / tactile allodynia ([7]; taxol treated rats, 1, 3, 10 mg/kg PO b.i.d.)	Mouse plasma/brain ratio [3]	withdrawal force (Von Frey) ([7]; 150 mg/kg IP, 2 hours post dosing, study day 13) [g]	withdrawal force (Von Frey) ([7]; 150 mg/kg IP, 2 hours post dosing, study day 14) [g]	withdrawal force (Von Frey) ([7]; 150 mg/kg IP, 2 hours post dosing, study day 15) [g]
O=C(NO)c1cnc(NC2(c3cc(F)cc(F)c3)CCCCC2)nc1 [Compound 001]	6200	2.9	2.55	91.7	11.1	1040	870							
O=C(NO)c1cnc(NC2(c3cc(F)ccc3F)CCOCC2)nc1 [Compound 002]	671	2.4	0.45	93.3	18.4	117	108							
O=C(NO)c1cnc(NC2(c3ccccc3)CCC(F)(F)CC2)nc1 [Compound 003]	4380	3.7	0.67	61.7	41.5	961	982	58.30 ± 1.70	41.10 ± 5.88	completely reversed nociception; also recorded: reduced tactile allodynia				
O=C(NO)c1cnc(NC2(c3cccc(F)c3)CCC3(CC2)OCCO3)nc1 [Compound 004]	1820	3.9				703	833							
O=C(NO)c1cnc(NC2(c3ccccc3)CC2)nc1 [Compound A, reference compound]				100	16.5						1.23			
O=C(NO)c1cnc(NC2(c3cccc(F)c3)CCCCC2)nc1 [Compound B, reference compound]				38.3	7.9						1.28			
NCC1(CC(=O)O)CCCCC1 [gabapentin, reference compound]												58.30 ± 1.70	60.00 ± 0.00	58.30 ± 1.70
